Data taken from the CheMixHub drug solubility set.

Test: xn = mol fraction of the nth substance listed, in the solute-free solvent

O=[N+]([O-])c1cc[nH]n1 + CC(C)=O + O
solubility (g/100 g solution) (283.15 K, x2 = 0.03333): 0.251 | solubility (g/100 g solution) (283.15 K, x2 = 0.07199): 0.297 | solubility (g/100 g solution) (283.15 K, x2 = 0.1174): 0.313 | solubility (g/100 g solution) (283.15 K, x2 = 0.1714): 0.322 | solubility (g/100 g solution) (283.15 K, x2 = 0.2368): 0.324 | solubility (g/100 g solution) (283.15 K, x2 = 0.3176): 0.319 | solubility (g/100 g solution) (283.15 K, x2 = 0.42): 0.324 | solubility (g/100 g solution) (283.15 K, x2 = 0.5538): 0.306 | solubility (g/100 g solution) (283.15 K, x2 = 0.7363): 0.299 | solubility (g/100 g solution) (288.15 K, x2 = 0.03333): 0.321 | solubility (g/100 g solution) (288.15 K, x2 = 0.07199): 0.351 | solubility (g/100 g solution) (288.15 K, x2 = 0.1174): 0.362 | solubility (g/100 g solution) (288.15 K, x2 = 0.1714): 0.371 | solubility (g/100 g solution) (288.15 K, x2 = 0.2368): 0.369 | solubility (g/100 g solution) (288.15 K, x2 = 0.3176): 0.37 | solubility (g/100 g solution) (288.15 K, x2 = 0.42): 0.366 | solubility (g/100 g solution) (288.15 K, x2 = 0.5538): 0.354 | solubility (g/100 g solution) (288.15 K, x2 = 0.7363): 0.349 | solubility (g/100 g solution) (293.15 K, x2 = 0.03333): 0.373 | solubility (g/100 g solution) (293.15 K, x2 = 0.07199): 0.41 | solubility (g/100 g solution) (293.15 K, x2 = 0.1174): 0.422 | solubility (g/100 g solution) (293.15 K, x2 = 0.1714): 0.43 | solubility (g/100 g solution) (293.15 K, x2 = 0.2368): 0.426 | solubility (g/100 g solution) (293.15 K, x2 = 0.3176): 0.422 | solubility (g/100 g solution) (293.15 K, x2 = 0.42): 0.414 | solubility (g/100 g solution) (293.15 K, x2 = 0.5538): 0.398 | solubility (g/100 g solution) (293.15 K, x2 = 0.7363): 0.397 | solubility (g/100 g solution) (298.15 K, x2 = 0.03333): 0.471 | solubility (g/100 g solution) (298.15 K, x2 = 0.07199): 0.49 | solubility (g/100 g solution) (298.15 K, x2 = 0.1174): 0.501 | solubility (g/100 g solution) (298.15 K, x2 = 0.1714): 0.507 | solubility (g/100 g solution) (298.15 K, x2 = 0.2368): 0.491 | solubility (g/100 g solution) (298.15 K, x2 = 0.3176): 0.487 | solubility (g/100 g solution) (298.15 K, x2 = 0.42): 0.476 | solubility (g/100 g solution) (298.15 K, x2 = 0.5538): 0.457 | solubility (g/100 g solution) (298.15 K, x2 = 0.7363): 0.461 | solubility (g/100 g solution) (303.15 K, x2 = 0.03333): 0.552 | solubility (g/100 g solution) (303.15 K, x2 = 0.07199): 0.576 | solubility (g/100 g solution) (303.15 K, x2 = 0.1174): 0.594 | solubility (g/100 g solution) (303.15 K, x2 = 0.1714): 0.597 | solubility (g/100 g solution) (303.15 K, x2 = 0.2368): 0.573 | solubility (g/100 g solution) (303.15 K, x2 = 0.3176): 0.564 | solubility (g/100 g solution) (303.15 K, x2 = 0.42): 0.543 | solubility (g/100 g solution) (303.15 K, x2 = 0.5538): 0.527 | solubility (g/100 g solution) (303.15 K, x2 = 0.7363): 0.515 | solubility (g/100 g solution) (308.15 K, x2 = 0.03333): 0.72 | solubility (g/100 g solution) (308.15 K, x2 = 0.07199): 0.71 | solubility (g/100 g solution) (308.15 K, x2 = 0.1174): 0.708 | solubility (g/100 g solution) (308.15 K, x2 = 0.1714): 0.705 | solubility (g/100 g solution) (308.15 K, x2 = 0.2368): 0.683 | solubility (g/100 g solution) (308.15 K, x2 = 0.3176): 0.662 | solubility (g/100 g solution) (308.15 K, x2 = 0.42): 0.637 | solubility (g/100 g solution) (308.15 K, x2 = 0.5538): 0.614 | solubility (g/100 g solution) (308.15 K, x2 = 0.7363): 0.576 | solubility (g/100 g solution) (313.15 K, x2 = 0.03333): 0.876 | solubility (g/100 g solution) (313.15 K, x2 = 0.07199): 0.865 | solubility (g/100 g solution) (313.15 K, x2 = 0.1174): 0.855 | solubility (g/100 g solution) (313.15 K, x2 = 0.1714): 0.853 | solubility (g/100 g solution) (313.15 K, x2 = 0.2368): 0.813 | solubility (g/100 g solution) (313.15 K, x2 = 0.3176): 0.79 | solubility (g/100 g solution) (313.15 K, x2 = 0.42): 0.749 | solubility (g/100 g solution) (313.15 K, x2 = 0.5538): 0.722 | solubility (g/100 g solution) (313.15 K, x2 = 0.7363): 0.678 | solubility (g/100 g solution) (318.15 K, x2 = 0.03333): 1.07 | solubility (g/100 g solution) (318.15 K, x2 = 0.07199): 1.05 | solubility (g/100 g solution) (318.15 K, x2 = 0.1174): 1.05 | solubility (g/100 g solution) (318.15 K, x2 = 0.1714): 1.05 | solubility (g/100 g solution) (318.15 K, x2 = 0.2368): 0.984 | solubility (g/100 g solution) (318.15 K, x2 = 0.3176): 0.932 | solubility (g/100 g solution) (318.15 K, x2 = 0.42): 0.871 | solubility (g/100 g solution) (318.15 K, x2 = 0.5538): 0.873 | solubility (g/100 g solution) (318.15 K, x2 = 0.7363): 0.794 | solubility (g/100 g solution) (323.15 K, x2 = 0.03333): 1.32 | solubility (g/100 g solution) (323.15 K, x2 = 0.07199): 1.29 | solubility (g/100 g solution) (323.15 K, x2 = 0.1174): 1.29 | solubility (g/100 g solution) (323.15 K, x2 = 0.1714): 1.24 | solubility (g/100 g solution) (323.15 K, x2 = 0.2368): 1.17 | solubility (g/100 g solution) (323.15 K, x2 = 0.3176): 1.11 | solubility (g/100 g solution) (323.15 K, x2 = 0.42): 0.999 | solubility (g/100 g solution) (323.15 K, x2 = 0.5538): 1.02 | solubility (g/100 g solution) (323.15 K, x2 = 0.7363): 0.916
